Laboratory results taken from patent US6274557A, “Inhibition of nitric oxide synthase by amino acids and dipeptides” (Northwestern University, priority 1999, dated 2001).
Read-outs that look alike come from different tables or passages of the source.

Assays:
[1] = target: T1, recombinant bovine endothelial nitric oxide synthase (eNOS) (Bos taurus, UniProt P29473); assay: Hemoglobin capture assay of nitric oxide formation, eNOS; format: biochemical
T1 construct: made in house; host or cells: E. coli
Protocol: (§1) Nitric oxide formation was measured by using the hemoglobin capture assay. […] The production of nitric oxide by eNOS was measured as described. […] All assays were in a final volume of 600 μL and were initiated with enzyme.
(§2) The reversible inhibition of NOS by the dipeptide analogs was studied under initial rate conditions with the hemoglobin assay as described above. […] With various L-arginine and inhibitor concentrations.

[2] = target: recombinant murine macrophage nitric oxide synthase (iNOS) (Mus musculus, UniProt P29477); assay: Hemoglobin capture assay of nitric oxide formation, iNOS
Protocol: as §1, §2

[3] = test system: nitric oxide synthases (nNOS, iNOS, eNOS); details: literature, methyl: eNOS and nNOS over iNOS, ethyl: iNOS over nNOS and eNOS, cited from earlier work
[4] = target: neuronal nitric oxide synthase (nNOS) from bovine brain (Bos taurus, UniProt A0A3Q1M6M2); assay: Hemoglobin capture assay of nitric oxide formation, nNOS
Chain of neuronal nitric oxide synthase (nNOS) from bovine brain (A0A3Q1M6M2 entry or part of it): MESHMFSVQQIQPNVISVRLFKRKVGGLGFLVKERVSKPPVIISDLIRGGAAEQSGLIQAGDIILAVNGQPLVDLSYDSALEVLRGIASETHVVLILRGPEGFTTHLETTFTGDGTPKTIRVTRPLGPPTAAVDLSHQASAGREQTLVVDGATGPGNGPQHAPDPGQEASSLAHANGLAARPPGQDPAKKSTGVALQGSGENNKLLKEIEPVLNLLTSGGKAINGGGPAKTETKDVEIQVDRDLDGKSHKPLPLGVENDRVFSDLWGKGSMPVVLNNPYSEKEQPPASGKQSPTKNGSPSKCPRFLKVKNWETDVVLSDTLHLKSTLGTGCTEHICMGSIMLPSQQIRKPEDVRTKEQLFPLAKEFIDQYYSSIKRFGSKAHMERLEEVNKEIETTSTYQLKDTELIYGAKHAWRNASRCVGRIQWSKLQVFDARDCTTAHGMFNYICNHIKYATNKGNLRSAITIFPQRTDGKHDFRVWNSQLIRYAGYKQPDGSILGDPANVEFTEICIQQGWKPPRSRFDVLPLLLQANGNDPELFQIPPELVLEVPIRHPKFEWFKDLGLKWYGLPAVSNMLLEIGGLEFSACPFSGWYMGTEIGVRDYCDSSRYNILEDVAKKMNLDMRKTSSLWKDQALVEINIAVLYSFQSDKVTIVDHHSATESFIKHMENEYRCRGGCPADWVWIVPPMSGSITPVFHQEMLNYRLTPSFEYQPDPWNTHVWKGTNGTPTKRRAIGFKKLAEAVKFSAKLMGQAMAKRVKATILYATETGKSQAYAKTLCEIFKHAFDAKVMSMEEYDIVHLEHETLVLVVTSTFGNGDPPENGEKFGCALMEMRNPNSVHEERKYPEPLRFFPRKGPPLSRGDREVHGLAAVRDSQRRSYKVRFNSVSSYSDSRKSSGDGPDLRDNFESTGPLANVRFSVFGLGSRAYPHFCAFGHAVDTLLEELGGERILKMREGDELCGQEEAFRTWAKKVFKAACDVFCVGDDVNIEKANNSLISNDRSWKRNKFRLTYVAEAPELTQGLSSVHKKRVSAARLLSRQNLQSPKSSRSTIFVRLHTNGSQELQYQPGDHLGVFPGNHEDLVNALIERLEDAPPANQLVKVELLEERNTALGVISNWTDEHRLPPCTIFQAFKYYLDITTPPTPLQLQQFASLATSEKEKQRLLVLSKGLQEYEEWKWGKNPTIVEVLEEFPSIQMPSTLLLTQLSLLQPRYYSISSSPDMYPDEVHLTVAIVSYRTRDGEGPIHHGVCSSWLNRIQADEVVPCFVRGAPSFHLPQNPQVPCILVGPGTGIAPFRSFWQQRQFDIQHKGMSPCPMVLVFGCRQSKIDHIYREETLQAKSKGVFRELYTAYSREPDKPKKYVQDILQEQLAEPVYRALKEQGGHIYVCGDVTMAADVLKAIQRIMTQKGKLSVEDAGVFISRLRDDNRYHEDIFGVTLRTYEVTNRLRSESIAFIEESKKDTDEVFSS
Protocol: as §1, §2

[5] = N-substituted L-arginines, ratio of the inverse of the Ki values (IC50 for methyl, ethyl)

Structure (SMILES): CCNC(=N)NCCC[C@H](N)C(=O)O [ethyl, N^ω -ethyl-L-arginine, reference compound]
- IC50 [1]: 9.5 µM
- IC50 [2]: 6.1 µM
- isoform selectivity factor ([3]; listed as N^ω --ethyl-L-arginine): ~2
- isoform selectivity factor ([3]; listed as N^ω -ethyl-L-arginine): about 2
- IC50 [4]: 16 µM
- Selectivity nNOS/eNOS [4, 5]: 0.6
- Selectivity nNOS/iNOS [4, 5]: 0.4
